The text below walks through data of patent publication US20190330224A1, “ACC INHIBITORS AND USES THEREOF” (Gilead Apollo, LLC, priority 2015, published 2019).

Broadly, the MIC is the least concentration at which growth counts as inhibited. Usually pIC50 stands for the negative decadic logarithm of the IC50, by convention in mol/L.

The test system of one experiment is C. albicans ATCC 90028. Put plainly: Anti-Fungal Activity Assay (broth microtiter MIC), C. albicans. The experiment is classed as cell-based, Candida albicans. Conditions: Candida albicans, ATCC90028, 48 h, 3 replicates; MIC recorded at 48 h; read-out: MIC C. albicans ATCC 90028. In short, it runs like this:
(§1)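 Susceptibility testing used direct colony suspensions in RPMI 1640+MOPS from Sabouraud dextrose agar grown at 35° C. Endpoints were visual MICs at 48 h under CLSI M27-A3 microtiter conditions, plus a 24 h reading for soraphen.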

For another experiment, the target named is Fungal ACC2 (UniProt Q00955). Conditions: read-out: Fungal ACC2 (IC50, in vitro ACC2 inhibition).
A further experiment concerns the target Human ACC2 (Homo sapiens, UniProt O00763). Put plainly: In vitro ACC2 inhibition assay (ADP-Glo), human ACC2. The following applies: 5 nM ACC2, 20 μM ATP, 20 μM acetyl-CoA. The experiment is classed as biochemical. A general note: ADP-Glo turns the ADP formed in a reaction into a luminescent signal.
The test system of the next experiment is C. krusei ATCC 6258. The experiment in a line: Anti-Fungal Activity Assay (broth microtiter MIC), C. krusei. It counts as cell-based, Candida krusei. The following applies: Pichia kudriavzevii, ATCC6258, 48 h, 3 replicates; MIC recorded at 48 h; read-out: MIC C. krusei ATCC 6258. Summed up:
as §1

The test system of experiment [1] is C. parapsilosis ATCC 22019. Put plainly: Anti-Fungal Activity Assay (broth microtiter MIC), C. parapsilosis. It counts as cell-based, Candida parapsilosis. The following applies: Lodderomyces parapsilosis, ATCC22019, 48 h, 3 replicates; MIC recorded at 48 h; read-out: MIC C. parapsilosis ATCC 22019. In short, it runs like this: as §1

pIC50: −log10 of the molar value. In brackets after ≈: the same amount, converted by molar mass.

Chain of Fungal ACC2 (Q00955 whole entry): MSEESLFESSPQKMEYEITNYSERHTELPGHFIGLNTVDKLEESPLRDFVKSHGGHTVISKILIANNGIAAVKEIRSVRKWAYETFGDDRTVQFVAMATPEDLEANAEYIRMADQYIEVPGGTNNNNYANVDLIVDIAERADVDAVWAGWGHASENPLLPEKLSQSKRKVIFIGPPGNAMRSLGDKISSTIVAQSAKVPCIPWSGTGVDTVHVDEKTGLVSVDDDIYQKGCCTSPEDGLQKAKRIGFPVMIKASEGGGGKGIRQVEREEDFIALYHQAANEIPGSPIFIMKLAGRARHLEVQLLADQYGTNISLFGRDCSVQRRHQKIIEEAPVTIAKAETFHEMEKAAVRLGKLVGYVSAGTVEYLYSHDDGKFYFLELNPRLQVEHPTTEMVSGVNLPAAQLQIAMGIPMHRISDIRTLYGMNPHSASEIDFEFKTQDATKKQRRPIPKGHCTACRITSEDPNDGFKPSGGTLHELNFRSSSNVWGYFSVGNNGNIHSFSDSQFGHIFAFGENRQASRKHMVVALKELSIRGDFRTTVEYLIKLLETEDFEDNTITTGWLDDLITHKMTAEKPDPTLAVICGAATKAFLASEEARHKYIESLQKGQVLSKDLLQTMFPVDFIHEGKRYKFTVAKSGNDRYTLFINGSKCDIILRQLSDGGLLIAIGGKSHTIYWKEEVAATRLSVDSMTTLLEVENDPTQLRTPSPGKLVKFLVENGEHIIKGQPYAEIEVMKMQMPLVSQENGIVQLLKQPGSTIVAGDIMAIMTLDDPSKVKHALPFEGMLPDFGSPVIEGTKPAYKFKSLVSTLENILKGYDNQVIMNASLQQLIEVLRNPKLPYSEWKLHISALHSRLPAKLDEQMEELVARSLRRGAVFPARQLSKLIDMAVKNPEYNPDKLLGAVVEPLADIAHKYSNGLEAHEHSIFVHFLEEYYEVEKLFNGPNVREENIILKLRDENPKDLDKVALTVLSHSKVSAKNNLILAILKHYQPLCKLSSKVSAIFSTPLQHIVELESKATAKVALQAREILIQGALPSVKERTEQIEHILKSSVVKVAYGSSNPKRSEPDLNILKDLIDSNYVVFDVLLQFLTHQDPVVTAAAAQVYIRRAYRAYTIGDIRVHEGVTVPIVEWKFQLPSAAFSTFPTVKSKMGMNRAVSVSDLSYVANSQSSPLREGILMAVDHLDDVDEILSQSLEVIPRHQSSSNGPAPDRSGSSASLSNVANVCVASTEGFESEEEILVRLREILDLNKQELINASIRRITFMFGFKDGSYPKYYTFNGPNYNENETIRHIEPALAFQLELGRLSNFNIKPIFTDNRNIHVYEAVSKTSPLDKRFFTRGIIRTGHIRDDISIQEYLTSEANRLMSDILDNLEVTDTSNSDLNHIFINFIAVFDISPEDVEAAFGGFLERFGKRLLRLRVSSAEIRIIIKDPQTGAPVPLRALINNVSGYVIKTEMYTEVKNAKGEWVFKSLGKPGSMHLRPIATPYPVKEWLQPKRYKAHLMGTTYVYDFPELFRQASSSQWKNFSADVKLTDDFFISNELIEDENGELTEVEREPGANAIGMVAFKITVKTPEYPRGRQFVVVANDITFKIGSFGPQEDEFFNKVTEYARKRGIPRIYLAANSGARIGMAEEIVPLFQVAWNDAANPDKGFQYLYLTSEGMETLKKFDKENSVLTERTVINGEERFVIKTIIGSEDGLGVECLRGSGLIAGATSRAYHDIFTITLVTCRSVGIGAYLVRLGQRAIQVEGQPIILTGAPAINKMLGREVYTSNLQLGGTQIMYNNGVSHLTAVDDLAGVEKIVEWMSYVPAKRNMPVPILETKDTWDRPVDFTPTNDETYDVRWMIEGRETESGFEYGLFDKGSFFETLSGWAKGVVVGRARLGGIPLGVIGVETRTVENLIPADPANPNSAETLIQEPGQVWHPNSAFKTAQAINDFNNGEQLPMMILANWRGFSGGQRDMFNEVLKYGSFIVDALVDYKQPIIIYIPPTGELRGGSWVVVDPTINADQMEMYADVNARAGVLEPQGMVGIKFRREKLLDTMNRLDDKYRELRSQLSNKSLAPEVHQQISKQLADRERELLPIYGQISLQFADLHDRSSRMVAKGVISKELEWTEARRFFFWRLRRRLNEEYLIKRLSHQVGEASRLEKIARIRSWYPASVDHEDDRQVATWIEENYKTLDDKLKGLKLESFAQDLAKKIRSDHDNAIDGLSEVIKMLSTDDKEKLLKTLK
Chain of Human ACC2 (O00763 whole entry): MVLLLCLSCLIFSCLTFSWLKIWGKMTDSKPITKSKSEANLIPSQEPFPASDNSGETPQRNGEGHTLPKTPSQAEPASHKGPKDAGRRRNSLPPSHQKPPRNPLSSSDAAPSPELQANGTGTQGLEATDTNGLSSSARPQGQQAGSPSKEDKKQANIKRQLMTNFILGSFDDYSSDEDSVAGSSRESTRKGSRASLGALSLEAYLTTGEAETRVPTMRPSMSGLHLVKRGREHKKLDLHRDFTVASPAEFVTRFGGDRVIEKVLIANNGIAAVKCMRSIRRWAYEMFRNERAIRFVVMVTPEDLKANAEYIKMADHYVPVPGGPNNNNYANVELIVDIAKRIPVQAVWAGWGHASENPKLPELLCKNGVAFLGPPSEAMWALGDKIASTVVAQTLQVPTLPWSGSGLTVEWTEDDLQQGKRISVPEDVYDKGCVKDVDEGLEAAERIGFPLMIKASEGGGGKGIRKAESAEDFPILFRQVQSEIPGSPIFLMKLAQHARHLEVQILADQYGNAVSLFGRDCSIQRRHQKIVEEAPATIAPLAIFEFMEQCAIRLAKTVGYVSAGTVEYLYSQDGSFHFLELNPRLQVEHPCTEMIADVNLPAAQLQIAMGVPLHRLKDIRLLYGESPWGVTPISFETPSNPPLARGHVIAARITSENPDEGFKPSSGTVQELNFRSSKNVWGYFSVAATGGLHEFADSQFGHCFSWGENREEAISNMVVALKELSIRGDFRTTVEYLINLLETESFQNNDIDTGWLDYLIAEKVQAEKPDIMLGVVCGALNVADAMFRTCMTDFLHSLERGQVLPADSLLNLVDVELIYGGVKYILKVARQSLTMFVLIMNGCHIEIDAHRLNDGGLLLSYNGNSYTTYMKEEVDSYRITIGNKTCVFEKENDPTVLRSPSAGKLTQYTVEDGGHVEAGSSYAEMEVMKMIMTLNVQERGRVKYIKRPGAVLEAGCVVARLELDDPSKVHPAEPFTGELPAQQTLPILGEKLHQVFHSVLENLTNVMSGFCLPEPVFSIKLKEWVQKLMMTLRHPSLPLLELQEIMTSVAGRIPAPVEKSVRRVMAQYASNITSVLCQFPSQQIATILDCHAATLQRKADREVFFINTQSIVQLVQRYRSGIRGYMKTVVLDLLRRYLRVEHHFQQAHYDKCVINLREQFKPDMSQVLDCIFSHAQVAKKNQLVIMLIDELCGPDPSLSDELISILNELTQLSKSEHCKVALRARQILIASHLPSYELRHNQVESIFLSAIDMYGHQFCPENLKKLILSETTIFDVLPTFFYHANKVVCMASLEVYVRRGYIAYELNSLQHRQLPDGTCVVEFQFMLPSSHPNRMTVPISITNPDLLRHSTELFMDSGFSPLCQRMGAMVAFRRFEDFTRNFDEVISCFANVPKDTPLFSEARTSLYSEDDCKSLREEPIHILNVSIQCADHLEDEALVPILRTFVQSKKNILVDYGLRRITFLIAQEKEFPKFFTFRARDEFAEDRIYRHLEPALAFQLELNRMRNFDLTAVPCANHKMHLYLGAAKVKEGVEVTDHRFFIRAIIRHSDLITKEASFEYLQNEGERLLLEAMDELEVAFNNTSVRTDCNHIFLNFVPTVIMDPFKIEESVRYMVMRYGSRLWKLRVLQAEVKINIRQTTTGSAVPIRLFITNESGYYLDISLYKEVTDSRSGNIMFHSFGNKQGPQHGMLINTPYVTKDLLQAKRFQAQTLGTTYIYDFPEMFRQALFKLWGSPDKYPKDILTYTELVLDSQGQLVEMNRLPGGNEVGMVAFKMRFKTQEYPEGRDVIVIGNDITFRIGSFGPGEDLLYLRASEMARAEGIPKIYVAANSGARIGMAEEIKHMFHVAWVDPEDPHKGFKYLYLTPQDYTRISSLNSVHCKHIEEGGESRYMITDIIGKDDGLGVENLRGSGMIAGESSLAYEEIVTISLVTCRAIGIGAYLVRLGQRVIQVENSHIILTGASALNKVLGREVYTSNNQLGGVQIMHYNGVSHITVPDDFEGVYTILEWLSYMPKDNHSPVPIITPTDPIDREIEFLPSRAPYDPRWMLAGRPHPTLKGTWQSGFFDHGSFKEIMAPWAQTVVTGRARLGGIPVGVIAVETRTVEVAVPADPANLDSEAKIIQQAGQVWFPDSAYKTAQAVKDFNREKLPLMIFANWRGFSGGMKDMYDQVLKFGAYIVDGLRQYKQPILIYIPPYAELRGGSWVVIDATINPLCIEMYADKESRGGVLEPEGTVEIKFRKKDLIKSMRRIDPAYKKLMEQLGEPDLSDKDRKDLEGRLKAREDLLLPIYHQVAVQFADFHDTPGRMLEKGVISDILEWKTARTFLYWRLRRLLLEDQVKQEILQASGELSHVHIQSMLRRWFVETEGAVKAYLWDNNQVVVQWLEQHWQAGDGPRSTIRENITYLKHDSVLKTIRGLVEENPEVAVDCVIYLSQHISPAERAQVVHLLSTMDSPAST

As for `COc1ccc(F)cc1[C@H](Cn1c(=O)n([C@H]2CCN(C(=O)C(C)C)C2)c(=O)c2c(C)c(-n3nccn3)sc21)OCCO` [Compound I-97, 1-((R)-2-(5-fluoro-2-methoxyphenyl)-2-(2-hydroxy-ethoxy)ethyl)-3-((S)-1-isobutyrylpyrrolidin-3-yl)-5-methyl-6-(2H-1,2,3-triazol-2-yl)thieno[2,3-d]pyrimidine-2,4(1H,3H)-dione], the minimal inhibitory concentration (MIC) (in the experiment on C. albicans ATCC 90028; with C. krusei ATCC 6258; in experiment [1]) was 2.1 to 4 µg/mL (≈ 3.5 to 6.66 µM) in each case. Besides, the values for the negative-log IC50 (pIC50) on Fungal ACC2 and against Human ACC2 were 8.70 to 9.15 and 7.00 to 8.00, respectively.

`COc1ccc(F)cc1[C@H](Cn1c(=O)n([C@]2(C)CC(=O)N(C)C2)c(=O)c2c(C)c(-n3nccn3)sc21)OCCO` [Compound I-121, 3-((R)-1,3-dimethyl-5-oxopyrrolidin-3-yl)-1-((R)-2-(5-fluoro-2-methoxyphenyl)-2-(2-hydroxyethoxy)ethyl)-5-methyl-6-(2H-1,2,3-triazol-2-yl)thieno[2,3-d]pyrimidine-2,4(1H,3H)-dione]: the MIC (in the experiment with C. albicans ATCC 90028; in the experiment with C. krusei ATCC 6258; in experiment [1]) was 2.1 to 4 µg/mL (≈ 3.67 to 6.99 µM) throughout. The values for the negative logarithm of the IC50 (pIC50) on Fungal ACC2 and at Human ACC2 were 8.70 to 9.15 and 7.00 to 8.00, respectively.

With `COc1ccc(F)cc1[C@H](COc1nc2sc(-n3nccn3)c(C)c2c(=O)n1[C@@H]1CC(=O)N(C)C1)OCCO` [Compound I-112, 2-((R)-2-(5-fluoro-2-methoxyphenyl)-2-(2-hydroxy-ethoxy)ethoxy)-5-methyl-3-((R)-1-methyl-5-oxopyrrolidin-3-yl)-6-(2H-1,2,3-triazol-2-yl)thieno[2,3-d]pyrimidin-4(3H)-one], the minimum inhibitory concentration (MIC) (in the experiment with C. albicans ATCC 90028; with C. krusei ATCC 6258; in experiment [1]) was 2.1 to 4 µg/mL (≈ 3.76 to 7.16 µM) in each case. Besides, the pIC50 on Fungal ACC2 is 7.00 to 8.00; against Human ACC2 it was less than 6.00.

Consider `COc1ccc(F)cc1[C@H](Cn1c(=O)n([C@]2(C)CNC(=O)C2)c(=O)c2c(C)c(-n3nccn3)sc21)OCCO` [Compound I-119, 1-((R)-2-(5-fluoro-2-methoxyphenyl)-2-(2-hydroxyethoxy)ethyl)-5-methyl-3-((S)-3-methyl-5-oxopyrrolidin-3-yl)-6-(2H-1,2,3-triazol-2-yl)thieno[2,3-d]pyrimidine-2,4(1H,3H)-dione], for which the minimal inhibitory concentration (MIC) (in the experiment with C. albicans ATCC 90028; with C. krusei ATCC 6258; in experiment [1]) was 2.1 to 4 µg/mL (≈ 3.76 to 7.16 µM) each time. Besides, the pIC50 is 8.00 to 8.70 at Fungal ACC2 and 7.00 to 8.00 on Human ACC2.

Regarding `COc1ccc(F)cc1[C@H](Cn1c(=O)n([C@H]2CCCN(C)C2=O)c(=O)c2c(C)c(-n3nccn3)sc21)OCCC#N` [Compound I-116, 3-((R)-1-(5-fluoro-2-methoxyphenyl)-2-(5-methyl-3-((S)-1-methyl-2-oxopiperidin-3-yl)-2,4-dioxo-6-(2H-1,2,3-triazol-2-yl)-3,4-dihydrothieno[2,3-d]pyrimidin-1(2H)-yl)ethoxy)propanenitrile], the minimal inhibitory concentration (MIC) (in the experiment on C. albicans ATCC 90028; with C. krusei ATCC 6258; in experiment [1]) was 2.1 to 4 µg/mL (≈ 3.61 to 6.88 µM) in each case. Besides, the negative logarithm of the IC50 (pIC50) was 8.70 to 9.15 at Fungal ACC2 and 7.00 to 8.00 against Human ACC2.

As for `COCCO[C@@H](Cn1c(=O)n([C@]2(C)CCC(=O)N(C)C2)c(=O)c2c(C)c(-n3nccn3)sc21)c1cc(F)ccc1OC` [Compound I-136, 3-((R)-1,3-dimethyl-6-oxopiperidin-3-yl)-1-((R)-2-(5-fluoro-2-methoxyphenyl)-2-(2-methoxyethoxy)ethyl)-5-methyl-6-(2H-1,2,3-triazol-2-yl)thieno[2,3-d]pyrimidine-2,4(1H,3H)-dione], the MIC (with C. albicans ATCC 90028; in the experiment on C. krusei ATCC 6258; in experiment [1]) was 2.1 to 4 µg/mL (≈ 3.5 to 6.66 µM) each time. For the same compound, the pIC50 at Fungal ACC2 was 8.70 to 9.15; against Human ACC2, 7.00 to 8.00.

On to `COc1ccc(F)cc1[C@H](Cn1c(=O)n([C@@]2(C)CCCN(C)C2=O)c(=O)c2c(C)c(-n3nccn3)sc21)OCCO` [Compound I-131, 3-((S)-1,3-dimethyl-2-oxopiperidin-3-yl)-1-((R)-2-(5-fluoro-2-methoxyphenyl)-2-(2-hydroxyethoxy)ethyl)-5-methyl-6-(2H-1,2,3-triazol-2-yl)thieno[2,3-d]pyrimidine-2,4(1H,3H)-dione], for which the minimal inhibitory concentration (MIC) (with C. albicans ATCC 90028; with C. krusei ATCC 6258; in experiment [1]) was 2.1 to 4 µg/mL (≈ 3.58 to 6.82 µM) each time. Also, the pIC50 on Fungal ACC2 was 8.70 to 9.15; against Human ACC2, 7.00 to 8.00.

As for `COc1ccccc1[C@@H](O)Cn1c(=O)n([C@H]2CCN(C)C2=O)c(=O)c2c(C)c(-n3nccn3)sc21` [Compound I-165, 1-((R)-2-hydroxy-2-(2-methoxyphenyl)ethyl)-5-methyl-3-((S)-1-methyl-2-oxopyrrolidin-3-yl)-6-(2H-1,2,3-triazol-2-yl)thieno[2,3-d]pyrimidine-2,4(1H,3H)-dione], the minimal inhibitory concentration (MIC) (in the experiment with C. albicans ATCC 90028; in the experiment with C. krusei ATCC 6258; in experiment [1]) was 2.1 to 4 µg/mL (≈ 4.23 to 8.06 µM) each time. In addition, the negative logarithm of the IC50 (pIC50) at Fungal ACC2 was 8.00 to 8.70; against Human ACC2, 7.00 to 8.00.

Take `COCCO[C@@H](Cn1c(=O)n([C@]2(C)CCCN(C)C2=O)c(=O)c2c(C)c(-n3nccn3)sc21)c1cc(F)ccc1OC` [Compound I-128, 3-((R)-1,3-dimethyl-2-oxopiperidin-3-yl)-1-((R)-2-(5-fluoro-2-methoxyphenyl)-2-(2-methoxyethoxy)ethyl)-5-methyl-6-(2H-1,2,3-triazol-2-yl)thieno[2,3-d]pyrimidine-2,4(1H,3H)-dione]: the MIC (in the experiment on C. albicans ATCC 90028; in the experiment with C. krusei ATCC 6258; in experiment [1]) was 2.1 to 4 µg/mL (≈ 3.5 to 6.66 µM) in each case. Further, the pIC50 at Fungal ACC2 is 8.00 to 8.70; on Human ACC2, 7.00 to 8.00.

Take `COc1ccc(F)cc1[C@H](COc1nc2sc(-n3nccn3)c(C)c2c(=O)n1[C@H]1CCN(C)C1=O)OCCCO` [Compound I-156, 2-((R)-2-(5-fluoro-2-methoxyphenyl)-2-(3-hydroxy-propoxy)ethoxy)-5-methyl-3-((S)-1-methyl-2-oxopyrrolidin-3-yl)-6-(2H-1,2,3-triazol-2-yl)thieno[2,3-d]pyrimidin-4(3H)-one]: the MIC (in the experiment on C. albicans ATCC 90028; in the experiment with C. krusei ATCC 6258; in experiment [1]) was 2.1 to 4 µg/mL (≈ 3.67 to 6.99 µM) each time. Moreover, the pIC50 was 6.00 to 7.00 at Fungal ACC2 and less than 6.00 at Human ACC2.

Regarding `COc1ccc(F)cc1[C@H](Cn1c(=O)n([C@H]2CCN(C)C2=O)c(=O)c2c(C)c(-n3nccn3)sc21)OCCC(=O)O` [Compound I-176, 3-((R)-1-(5-fluoro-2-methoxyphenyl)-2-(5-methyl-3-((S)-1-methyl-2-oxopyrrolidin-3-yl)-2,4-dioxo-6-(2H-1,2,3-triazol-2-yl)-3,4-dihydrothieno[2,3-d]pyrimidin-1 (2H)-yl)ethoxy)propanoic acid], the MIC (with C. albicans ATCC 90028; in the experiment on C. krusei ATCC 6258; in experiment [1]) was 2.1 to 4 µg/mL (≈ 3.58 to 6.82 µM) in each case. Further, the pIC50 on Fungal ACC2 was 8.00 to 8.70; against Human ACC2, 7.00 to 8.00.

On to `COc1ccc(F)cc1[C@H](Cn1c(=O)n([C@]2(C)CCCN(C)C2=O)c(=O)c2c(C)c(-n3nccn3)sc21)OCCO` [Compound I-129, 3-((R)-1,3-dimethyl-2-oxopiperidin-3-yl)-1-((R)-2-(5-fluoro-2-methoxyphenyl)-2-(2-hydroxyethoxy)ethyl)-5-methyl-6-(2H-1,2,3-triazol-2-yl)thieno[2,3-d]pyrimidine-2,4(1H,3H)-dione], for which the MIC (in the experiment with C. albicans ATCC 90028; in the experiment with C. krusei ATCC 6258; in experiment [1]) was 2.1 to 4 µg/mL (≈ 3.58 to 6.82 µM) in each case. The negative-log IC50 (pIC50) on Fungal ACC2 is 8.70 to 9.15; at Human ACC2 it was 7.00 to 8.00.
